Experimental data taken from patent US6486156B1, “Chemical compounds” (Astrazeneca AB, priority 1998, dated 2002).

Biological target: T1, Farnesyl protein transferase (FPT) (Homo sapiens, UniProt P49354+P49356)
T1 construct: partially purified from human placenta by ammonium sulphate fractionation; from tissue; host or cells: human placenta
Test: In-vitro assay (test (i)): inhibition of farnesylation of Ki-ras with radiolabelled farnesyl pyrophosphate
Type: biochemical
Details: FPT partially purified from human placenta; substrate Kras (CVIM C-terminal sequence)
Method: The following stock solutions were used and the assays were conducted in 96 well plates: TRIS Buffer (500 mM TRIS, 5 mM MgCl2.6H2O, pH=8.0); Farnesyl pyrophosphate (6.4 mg/ml); Aprotinin (1.9 mg/ml); Ki-ras (0.5 mg/ml, stored at −80° C.); Acid ethanol (850 ml absolute ethanol+150 ml concentrated HCl).
Farnesyl protein transferase (FPT) was partially purified from human placenta by ammonium sulphate fractionation followed by a single Q-Sepharose™ (Pharmacia, Inc) anion exchange chromatography essentially as described by Ray and Lopez-Belmonte (Ray K P and Lopez-Belmonte J (1992) Biochemical Society Transactions 20 494-497). The substrate for FPT was Kras (CVIM C-terminal sequence). The cDNA for oncogenic val 12 variant of human c-Ki-ras-2 4B was obtained from the plasmid pSW11-1 (ATCC). This was then subcloned into the polylinker of a suitable expression vector e.g. pIC147. The Kras was obtained after expression in the E. coli strain, BL21. […]
Assays were performed in 96 well plates as follows: 10 μl of test compound solution was added to each well. […] Precipitated protein was then collected onto glass fibre filter mats (B) using a Tomtec™ cell harvester and tritiated label was measured in a Wallac™ 1204 Betaplate scintillation counter. […]

IC50: ~0.4 nM
Structure (SMILES): CSCC[C@H](NC(=O)c1ccc(/C=C/Cn2ccnc2)cc1-c1ccc(Cl)cc1Cl)C(=O)O [Example 29, (2S)-2-{4-[(E)-3-(Imidazol-1-yl)prop-1-en-1-yl]-2-(2,4-dichlorophenyl)benzamido}-4-methylsulfanylbutyric Acid]
